Source: patent publication US20080200530A1 (priority 2005, published 2008)

Tests used:
[1] = system: DOI-induced hypolocomotion; test: Attenuation of DOI-induced hypolocomotion in rats; type: in vivo, rat; conditions: 50 μmol/kg p.o., 60 min before DOI 0.3 mg/kg s.c.
Protocol: In this Example, compounds of the invention, such as Compound 1 and Compound 26, were tested for inverse agonist activity by determining whether these compounds could attenuate DOI-induced hypolocomotion in rats in a novel environment. DOI is a potent 5HT2A/5HT2C receptor agonist that crosses the blood-brain barrier.
Male Sprague-Dawley rats (Harlan, San Diego, Calif.) weighing between 200-300 g were used for all tests. Rats were housed three to four per cage. These rats were naive to experimental testing and drug treatment. Rats were handled one to three days before testing to acclimate them to experimental manipulation. Rats were fasted overnight prior to testing.
(R)-DOI HCl (C11H16INO2HCl) was obtained from Sigma-Aldrich, and was dissolved in 0.9% saline. […]
The “Motor Monitor” (Hamilton-Kinder, Poway, Calif.) was used for all activity measurement. This apparatus recorded rears using infrared photobeams. […]
In determining the effects of compounds of the invention on DOI-induced hypoactivity, animals were first injected with vehicle or the compound of the invention (50 μmol/kg) in their home cages. […] 10 min after DOI administration, animals were placed into the activity apparatus and rearing activity was measured for 10 minutes.
Results (total rears over 10 minutes) were analyzed by t-test. […]

5HT2A receptor = target: T1, 5HT2A receptor (Rattus norvegicus, UniProt P14842); test: 125I-LSD displacement from brain sections, autoradiography, cortex; type: binding, Sprague-Dawley rats; conditions: 1 micromolar compound, 1 nanomolar 125I-LSD
T1 construct: from tissue; host or cells: Sprague-Dawley rat brain, horizontal cryostat sections (cerebral cortex)

[2] = system: JC virus infection of human glial cells; conditions: Elphick et al., Science (2004); cited from earlier work
[3] = target: T2, endogenous human 5-HT2C receptor (Homo sapiens, UniProt P28335)
T2 sequence (P28335 33-458): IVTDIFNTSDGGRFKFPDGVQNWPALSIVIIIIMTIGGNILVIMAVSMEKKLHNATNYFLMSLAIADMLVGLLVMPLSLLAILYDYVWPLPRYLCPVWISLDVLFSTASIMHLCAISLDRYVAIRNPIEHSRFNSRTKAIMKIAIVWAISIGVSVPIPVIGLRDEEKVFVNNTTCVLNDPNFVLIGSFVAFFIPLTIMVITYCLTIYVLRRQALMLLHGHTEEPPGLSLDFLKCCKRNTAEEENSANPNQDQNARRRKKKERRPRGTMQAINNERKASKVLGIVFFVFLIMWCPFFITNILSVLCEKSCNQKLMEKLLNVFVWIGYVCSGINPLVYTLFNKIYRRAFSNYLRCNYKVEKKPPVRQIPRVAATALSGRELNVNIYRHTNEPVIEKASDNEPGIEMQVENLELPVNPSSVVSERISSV

T1 sequence (P14842 whole entry): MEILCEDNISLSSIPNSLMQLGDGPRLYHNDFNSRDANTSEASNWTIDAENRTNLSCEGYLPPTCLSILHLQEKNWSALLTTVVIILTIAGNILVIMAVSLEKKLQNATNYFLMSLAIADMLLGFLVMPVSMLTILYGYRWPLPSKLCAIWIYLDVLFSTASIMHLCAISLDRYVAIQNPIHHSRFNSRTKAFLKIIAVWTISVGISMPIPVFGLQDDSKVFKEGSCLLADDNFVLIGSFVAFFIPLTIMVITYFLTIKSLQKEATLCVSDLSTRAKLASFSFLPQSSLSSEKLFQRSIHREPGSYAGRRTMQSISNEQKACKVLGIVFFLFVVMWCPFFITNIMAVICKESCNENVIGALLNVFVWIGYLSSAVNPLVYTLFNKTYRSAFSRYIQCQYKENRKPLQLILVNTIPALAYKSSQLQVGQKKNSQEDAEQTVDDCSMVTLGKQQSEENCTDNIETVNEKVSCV

Compound	effect on DOI-induced hypolocomotion (total rears over 10 minutes) [1]	JC virus infection of human glial cells [2]	also measured
COc1ccc(NC(=O)Nc2ccc(Cl)cc2)cc1-c1c(Br)cnn1C [Compound 1, 1-[3-(4-Bromo-2-methyl-2H-pyrazol-3-yl)-4-methoxy-phenyl]-3-(4-chloro-phenyl)-urea]	attenuated DOI-induced hypolocomotion		
COc1ccc(NC(=O)Nc2ccc(Cl)cc2)cc1-c1c(Cl)cnn1C [Compound 26, 1-[3-(4-Chloro-2-methyl-2H-pyrazol-3-yl)-4-methoxy-phenyl]-3-(4-chloro-phenyl)-urea]	attenuated DOI-induced hypolocomotion		
COc1ccc(OC(=O)Nc2cccc(-c3c(Br)cnn3C)c2)cc1 [Compound S-1610, [3-(4-Bromo-2-methyl-2H-pyrazol-3-yl)-phenyl]-carbamic acid 4-methoxy-phenyl ester]			displacement of 125I-LSD from the cortex (5HT2A) (5HT2A receptor): selectively displace
Cc1nc2sccn2c(=O)c1CCN1CCC(=C(c2ccc(F)cc2)c2ccc(F)cc2)CC1 [Ritanserin]		inhibited	
O=C(c1ccc(F)cc1)C1CCN(CCn2c(=O)[nH]c3ccccc3c2=O)CC1 [ketanserin]		inhibited	
CN1CCN2c3ccccc3Cc3ccccc3C2C1 (stereo not shown) [mianserin]			inhibition of serotonin-stimulated [35S]GTPγS binding ([3]; 30 μM mianserin): inhibits this response; effect on basal constitutive binding of [35S]GTPγS ([3]; no agonist): partial inverse agonist
